Results: US12310967B2, “Compositions and methods of treatment for neurological disorders comprising motor neuron diseases” (Gliapharm SA, priority 2017, dated 2025)

Columns and labels:
primary astrocytes [1] = assay: High throughput screening (HTS) for lactate secretion: acidification of extracellular medium (SNARF5); type: cell-based, mouse; parameters: key to Score / HTS Score (SNARF5) / Score_SNARF: fraction of plate positive-control activity (1 = 100%); details: Appendix I, primary screening confirmation (SNARF5)
Procedure: Primary cultures of cerebrocortical astrocytes were obtained from 1-2-day-old OF1 mouse pups (Charles River Laboratories). Briefly, cortices were isolated and minced in small pieces under a dissecting microscope. The cells were incubated for 30 min at 37° C. in a solution containing 20 U/ml of papain enzyme (Worthington Biochemical), L-cysteine 1 mM (Sigma), and 10 kU/ml DNase I (Worthington Biochemical) for an enzymatic dissociation. Papain activity was stopped by the addition of fetal calf serum (FCS) to the solution, and a single-cell suspension was then obtained by mechanical dissociation, which consisted in cells trituration in a DMEM (D7777, Sigma-Aldrich) medium (supplemented with 44 mm NaHCO3, and 10 ml/L antibiotic/antimycotic solution) containing 10% FCS. The cells were seeded at an average density of 6×10^4 cells/cm^2 in poly-D-lysine-coated 96, 12 or 6-well culture plates, depending on their use, and incubated at 37° C. in a humidified atmosphere containing 5% CO2/95% air. Culture medium was renewed twice per week. Cells were stimulated and harvested between DIV14 and DIV17, when confluence and cell growth were optimal.
Secretion of lactate in a high-throughput screening (HTS) fashion was measured indirectly through the acidification of extracellular medium. To this end, primary astrocytes grown in 96-well plates for 17 days were stimulated with the compounds as listed herein.
After washing the cells twice with stimulation medium (DMEM (D5030, Sigma), 3 mM NaHCO3 and 5 mM Glucose) at 37° C., cells were stimulated with the compounds at a final concentration of 10 uM (1% DMSO final) in 50 ul per well of stimulation medium supplemented with 10 uM of the extracellular pH sensor SNARF-5F %-(AND-6)-CAR (Life Technologies Corporation). Each compound was tested in two different plates for duplicates.
After 90 min stimulation, fluorescence was read at exc. (excitation) 480 nm/emm. (emission) 580 nm and at exc 480 nm/emm. 630 nm. The ratio of fluorescence between 630 nm and 580 emission values, which represents extracellular pH, was calculated.
In each plate, 8 wells were used for negative controls (DMSO) and 8 wells were used for positive controls (CCCP 2 uM in DMSO). Z prime values were calculated for each of the plates tested and values<0 were discarded.
The average and SD of compounds' values tested in duplicates were calculated, and compound was noted as HIT when the difference between compound's average and negative control's average was greater than three times the sum of compound's SD and negative controls' SD. Only scores greater than 40% were considered as lead Hits for the CDC54K library; for the remaining libraries, all hits were considered. Scores are calculated as the % of activity compared to the positive control in each plate (which is 100%).
Primary screening hits were cherry picked on new plates and confirmed for SNARF5 effect, after having discarded those compounds that are fluorescent (exc. 480 nm/emm. 580 nm or 630 nm) before stimulation. Extracellular medium was next analyzed for extracellular lactate quantification for secondary screening.
Identification of lactate-enhancing drugs with high throughput screening (HTS) experiments on astrocytes primary cultures using extracellular pH dye (SNARF5F 5-(and-6)-carboxylic acid) for 90 min. The procedure is described in Material and Methods (2. Cell culture, 2.1. HTS for lactate secretion and 2.2. Extracellular lactate quantification).
The procedure was performed as follows: • Primary screening: acidification of the extracellular medium • Primary screening confirmation: acidification of the extracellular medium, removal of compounds with fluorescent activity at exc. 480 nm/emm. 580 nm or 630 n. • Secondary screening: dosage of extracellular lactate

primary astrocytes [2] = assay: Extracellular lactate quantification; type: cell-based, mouse; details: Appendix I, secondary screening: extracellular lactate
Procedure: Secretion of L-lactate was determined in the extracellular medium of 96-well plated astrocytes after 90 min stimulation (at 37° C., in 5% CO2/95% air conditions) with the drug of interest. The stimulation medium was composed of D5030 medium (completed with D-glucose 5 mM and 44 mM sodium bicarbonate) for 90 min in concentrations ranging from 0 to 100 μM.
Briefly, 200 μl of a Glycine (Sigma)-Semicarbazide (Acros) 0.2M pH 10 buffer containing 3 mM NAD (Roche) and LDH 14 U/ml (Roche) was added to each well of a 96-well plate containing 30 μl aliquots complemented with 20 μl fresh complete D5030 medium. Samples were incubated at 37° C. for 1 h. After samples cooled down at room temperature, the fluorescence intensity (340 nm excitation/450 nm emission) that represents the amount of NADH produced was measured, and lactate concentration values were determined from a standard curve of L-lactate.
Statistical analysis consisted in ANOVA followed by Fisher LSD post-hoc test for pair-wise comparisons.
Levels of lactate secreted by astrocytes were measured in the extracellular medium at 90 min after stimulation with hits (molecules) from the CDC54K library.

| Compound | Score_SNARF (primary astrocytes [1]) | Score_LACTATE (primary astrocytes [2]) |
| --- | --- | --- |
| Cc1oc2ncnc(N3CCCC(C(=O)NCc4cccnc4)C3)c2c1C (stereo not drawn) [F228-0351] | 0.82 | 0.8985 |
| Cc1cccc([N+]2=C3CCCCN3C(O)(c3ccc(Cl)cc3)C2)c1 (stereo not drawn) [K404-0800] | 0.7386 | 0.8385 |
| Cc1oc2ncnc(N3CCCC(C(=O)NCc4ccccn4)C3)c2c1C (stereo not drawn) [F228-0350] | 1.011 | 1.023 |
| O=S(=O)(NC1CCN(c2ncnc3c2CCC3)C1)c1ccccc1 (stereo not drawn) [T636-1250] | 0.8587 | 0.8982 |
| c1ccc2c(c1)CN(c1ncnc3sccc13)CCN2 [T6768300] | 0.3742 | 0 |
| CC(C)OCCCNc1ncnc2c1CCC2 [T636-0027] | 0 | 0 |
| Cc1cccc([N+]2=C3CCCCCN3C(O)(c3ccc(F)cc3)C2)c1 (stereo not drawn) [K404-0910] | 0.5878 | 0.6219 |
| COc1ccc(OC)c([N+]2=C3CCCCCN3C(O)(c3ccc(C)cc3)C2)c1 (stereo not drawn) [K404-0855] | 0.4944 | 0.6277 |
| CCn1nccc1-c1csc(S(=O)(=O)Nc2ccccc2OC)c1 [L924-1088] | 0.8835 | 0.9106 |
| Cc1nc(N2CCCC(C(=O)NCc3cccnc3)C2)c2c(C)c(C)oc2n1 (stereo not drawn) [F228-0856] | 0 | 0 |
| CC1c2ccsc2CCN1c1ncnc2sccc12 (stereo not drawn) [T5630309] | 0.4816 | 0.7 |
| CCOc1ccc(C2(O)C[N+](c3ccccc3OC)=C3CCCCN32)cc1 (stereo not drawn) [K404-0673] | 0.9751 | 2.024 |
| O=C(c1ccc(Cl)s1)N1CCC(Nc2ncnc3c2CCC3)C1 (stereo not drawn) [T636-2391] | 0.8743 | 0.8854 |
| CCOc1ccc(C2(O)C[N+](c3cc(OC)ccc3OC)=C3CCCCCN32)cc1 (stereo not drawn) [K404-0860] | 0.6137 | 0.4766 |
| CCc1ccc(C2(O)C[N+](c3ccccc3OC)=C3CCCCN32)cc1 (stereo not drawn) [K404-0672] | 1.014 | 1.356 |
| COc1ccccc1[N+]1=C2CCCCCN2C(O)(c2ccc(F)cc2)C1.[Br-] (stereo not drawn) [F0524-0611] | 0.5954 | 1.547 |
| O=C(c1ccco1)N1CCCn2nc(-c3ccc(C(F)(F)F)cc3)cc2C1 [T200-0370] | 0.3804 | 0.2896 |
| O=S(=O)(Nc1ccc2[nH]ncc2c1)c1ccc(C(F)(F)F)cc1 [T5653029] | 0.5642 | 1.354 |
| FC(F)(F)c1cccc(CNc2ncnc3sccc23)c1 [T5346988] | 0.9569 | 0.9327 |
| Cn1nccc1-c1csc(S(=O)(=O)Nc2ccc(F)cc2)c1 [L924-0760] | 0.7695 | 0.7898 |
| Cc1cccc([N+]2=C3CCCCN3C(O)(c3ccc(F)cc3)C2)c1C (stereo not drawn) [K404-0685] | 0.6562 | 0.6821 |
| CNC(=O)C1CCCN(c2ncnc3oc(C)c(C)c23)C1 (stereo not drawn) [F228-0541] | 0.3609 | 0 |
| Cc1ccc(CNc2ncnc3c2CCC3)o1 [T636-0054] | 0 | 0 |
| O=S(=O)(Nc1ccc(O)c(Cl)c1)c1ccc2ccccc2c1 [T0517-8939] | 0.6382 | 0 |
